Source: patent US20180110871A1, “DUAL DISULFIDE DRUG CONJUGATES” (ENDOCYTE, INC., priority 2015, published 2018)

What was measured:
KB cells = experiment: In vitro activity in KB cells (3H-thymidine incorporation); format: cell-based; conditions: 3H-thymidine incorporation relative to untreated controls
Protocol: Cells were seeded in 24-well Falcon plates and allowed to form nearly confluent monolayers overnight. After one rinse with 1 mL of fresh FFRPMI/HIFCS, each well received 1 mL, of medium containing increasing concentrations of test agent (3 wells per sample). Cells were pulsed with targeted agents for 2 hr at 37° C., rinsed 4 times with 0.5 mL of medium, and then chased in 1 mL of fresh medium up to 70 hr. Cells were treated with non-targeted agent EC0347 for a continuous 72 h. Spent medium was aspirated from all wells and replaced with fresh medium containing 5 μCi/mL ^3H-thymidine. After a further 2 hr 37° C. incubation, cells were washed 3 times with 0.5 mL of PBS and then treated with 0.5 mL of ice-cold […] per well. After 15 min, the trichloroacetic acid was aspirated and the cell material solubilized by the addition of 0.5 mL of 0.25 N sodium hydroxide for 15 min. Four hundred and fifty microliters of each solubilized sample were transferred to scintillation vials containing 3 mL of Ecolume scintillation cocktail and then counted in a liquid scintillation counter. Final tabulated results were expressed as the percentage of ^3H-thymidine incorporation relative to untreated controls and IC50 values calculated using Graphpad Prism software.

subcutaneous KB tumors = experiment: Antitumor activity in KB tumor model; format: in vivo, Female Balb/c nu/nu mice; conditions: FIG. 1; 2 μmol/kg, single-dose; n=5; mice with subcutaneous KB tumors
Protocol: Female Balb/c nu/nu mice were fed ad libitum with folate-deficient chow (Harlan diet #TD01013) for the duration of the experiment. KB tumor cells were inoculated subcutaneously at the right flank of each mouse. Mice were dosed after the tumors have reached a range of 107-152 mm^3 through the lateral tail vein under sterile conditions in a volume of 200 μL of phosphate-buffered saline (PBS).
Growth of each s.c. tumor was followed by measuring the tumor two times per week. Tumors were measured in two perpendicular directions using Vernier calipers, and their volumes were calculated as 0.5×L×W^2, where L=measurement of longest axis in mm and W=measurement of axis perpendicular to L in mm.

With `CCCC(=O)OCN(C(=O)[C@@H](NC(=O)[C@H]1CCCCN1C)C(C)CC)[C@H](C[C@@H](OC(C)=O)c1nc(C(=O)N[C@@H](Cc2ccc(O)cc2)C[C@H](C)C(=O)NN)cs1)C(C)C` (stereo partly drawn) [EC0347, Tubulysin B Hydrazide, reference compound] as the compound, how does the IC50 (KB cells; Homo sapiens, non-targeted agent, continuous 72 h) read?
Its IC50 is 1.5 nM.

For `C#CCN(Cc1ccc2nc(N)[nH]c(=O)c2c1)c1ccc(C(=O)N[C@@H](CCC(=O)OCCSSC[C@H](NC(=O)[C@H](CCC(=O)NC[C@H](O)[C@@H](O)[C@H](O)[C@H](O)CO)NC(=O)[C@H](CCC(=O)O)NC(=O)[C@H](CCC(=O)NC[C@H](O)[C@@H](O)[C@H](O)[C@H](O)CO)NC(=O)[C@H](CCC(=O)O)NC(=O)[C@H](CCC(=O)NC[C@H](O)[C@@H](O)[C@H](O)[C@H](O)CO)NC(=O)CCSSCCOC(=O)NNC(=O)[C@@H](C)C[C@H](Cc2ccc(O)cc2)NC(=O)c2csc([C@@H](C[C@H](C(C)C)N(COC(=O)CCC)C(=O)[C@@H](NC(=O)[C@H]3CCCCN3C)C(C)CC)OC(C)=O)n2)C(=O)O)C(=O)O)cc1` (stereo partly drawn) [EC2133], which IC50 (KB cells; targeted agents pulsed 2 hr at 37° C., chased up to 70 hr) is on record?
The IC50 was 0.8 nM.

And the “cure (number of mice)” value (subcutaneous KB tumors)?
Its value is 1.
